Columns and labels:
Type in all cases: cell-based
Details in all cases: after 10, 20, 40 and 60 minutes at all dilutions 1:100, 1:200, 1:400, 1:800
[1] = tested on: Staphylococcus aureus; test: Antimicrobial screening by agar dilution, St. Aereus
Method: (§1) The antimicrobial properties of the 1-[4,5-bis(4-bromophenyl)-1-hexyl-1H-imidazol-2-yl]-2-naphthol was studied by the method of agar dilution. Test solutions of each compound was prepared in concentration of 1% using dimethylformamide as a solvent then they were diluted in physiological solution to obtain the final experimental dilutions 1:100, 1:200, 1:400, 1:800. The effect of these substances was compared with furacillin in a controlled study. The testing microbes used were gram positive bacteria Staphylococcus aureus, gram negative bacteria Pseudomonas aeruginosa and Escherichia coli and Candida albicans fungi were taken. The experiments used for this survey were meat-pentonlu agar (EPA) for cultivation of bacteria and Saburo environment for fungi. Each experiment used 1 ml of test solution on each plate 500 min. Add 2 drops of emulsified with microbes feel. All experimental samples were taken from the agar after 10, 20, 40, 60 minutes in the environment on the basis of Patrk planted. Bacteria were cultivated at a temperature of 37° C. for 1 day and the mushroom was kept in a thermostat for […] at a temperature of 28° C. Then results were checked.

[2] = tested on: Escherichia coli; test: Antimicrobial screening by agar dilution, E. Coli
Method: as §1

[3] = tested on: Pseudomonas aeruginosa; test: Antimicrobial screening by agar dilution, Ps. Aeroqonaza
Method: as §1

[4] = tested on: Candida albicans; test: Antimicrobial screening by agar dilution, Candida albicans
Method: as §1

Measured: inhibition activity

CCCCCCn1c(-c2c(O)ccc3ccccc23)nc(-c2ccc(Br)cc2)c1-c1ccc(Br)cc1 [1-[4,5-bis(4-bromophenyl)-1-hexyl-1H-imidazol-2-yl]-2-naphthol]
highest inhibition activity: all assays above

— patent publication US11958811B1, “1-[4,5-bis(4-bromophenyl)-1-hexyl-1H-imidazol-2-yl]-2-naphthol as an antimicrobial compound” (KING FAISAL UNIVERSITY, priority 2023, dated 2024)
